# What was measured:
# [1] = test system: retinal neovascularization (视网膜新生血管); assay: Oxygen-induced retinopathy (OIR) mouse model; retinal flat mount with FITC-conjugated isolectin-B4, fluorescence microscopy of retinal neovascularization at P17; type: in vivo
# [2] = test system: VEGF-A; assay: Western blot of VEGF-A protein in retina of OIR mice (PBS control group and FUT-175 treated group); type: in vivo, mouse; details: retina total protein
structure (smiles),measurement,setting,value
N=C(N)c1ccc2cc(OC(=O)c3ccc(N=C(N)N)cc3)ccc2c1 [甲磺酸萘莫司他],change in retinal neovascularization growth after injection,"[1]; C3aR-/- and C5aR-/- mice, same OIR treatment",变化并不明显
same,fundus vessel growth,"[1]; C57BL/6J mice, OIR (75% oxygen from P7 for 5 d), 50 mg/kg i.p. daily from P12, evaluated at P17",血管生长趋于正常
same,inhibition of RNV growth,"[1]; C57BL/6J mice, OIR (75% oxygen from P7 for 5 d), 50 mg/kg i.p. daily from P12, evaluated at P17, fluorescence microscopy",能够明显抑制RNV的生长
same,VEGF-A expression change,[2]; C3aR and C5aR knockout,无检测到VEGF-A的表达变化
same,VEGF-A protein expression,[2]; C57BL/6J,可调节VEGF-A的蛋白表达
